Test results: patent US20220062240A1, “METHODS OF TREATING CANCER USING A CLK INHIBITOR” (BioSplice Therapeutics, Inc., priority 2018, published 2022)
Where two headings read alike, the source gives them in different places.

Tests used:
[1] = tested on: colorectal cancer (6 cell lines); assay: CellTiter-Glo Viability Assay, colorectal cancer; format: cell-based; settings: Homo sapiens, inhibition of cancer cell proliferation
all 50 cell lines = assay: CellTiter-Glo Viability Assay, average across all cell lines; format: cell-based; settings: Homo sapiens; across all 50 cell lines; read-out: average EC50 for inhibition of cancer cell proliferation
Procedure, shortened: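 Cancer cell lines of several tumour types plated at 300-3,000 cells/well and exposed to compound in duplicate for four days at 37° C, 5% CO2, with DMSO-treated controls. Viability read by CellTiter-Glo luminescence (ATP content); EC50 derived from dose-response curves.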

[2] = tested on: ovarian cancer (4 cell lines); assay: CellTiter-Glo Viability Assay, ovarian cancer; format: cell-based; settings: Homo sapiens, inhibition of cancer cell proliferation
[3] = tested on: lung cancer (4 cell lines); assay: CellTiter-Glo Viability Assay, lung cancer; format: cell-based; settings: Homo sapiens, inhibition of cancer cell proliferation
[4] = tested on: prostate cancer (5 cell lines); assay: CellTiter-Glo Viability Assay, prostate cancer; format: cell-based; settings: Homo sapiens
[5] = tested on: liver cancer (3 cell lines); assay: CellTiter-Glo Viability Assay, liver cancer; format: cell-based; settings: Homo sapiens, inhibition of cancer cell proliferation
[6] = tested on: pancreatic cancer (8 cell lines); assay: CellTiter-Glo Viability Assay, pancreatic cancer; format: cell-based; settings: Homo sapiens, inhibition of cancer cell proliferation
[7] = tested on: haematopoietic & lymphoid tumors (13 cell lines); assay: CellTiter-Glo Viability Assay, haematopoietic & lymphoid tumors; format: cell-based; settings: Homo sapiens, inhibition of cancer cell proliferation
CLK3 = CLK3 (Homo sapiens, UniProt P49761); assay: CLK3 kinase activity assay (Z-lyte, Ser/Thr 18 peptide)
MCF7 = assay: CellTiter-Glo Viability Assay, breast cancer; format: cell-based; settings: Homo sapiens, 96 h; MCF7, breast cancer, four days; read-out: EC50
T47D = assay: CellTiter-Glo Viability Assay, breast cancer; format: cell-based; settings: Homo sapiens, 96 h, breast cancer, four days, read-out: EC50
MDA-MB-231-Luc = assay: CellTiter-Glo Viability Assay, breast cancer; format: cell-based; settings: Homo sapiens, 96 h; MDA-MB-231-Luc, breast cancer, four days; read-out: EC50
HCC1599 = assay: CellTiter-Glo Viability Assay, breast cancer; format: cell-based; settings: Homo sapiens, 96 h; HCC1599, breast cancer, four days; read-out: EC50
DU4475 = assay: CellTiter-Glo Viability Assay, breast cancer; format: cell-based; settings: Homo sapiens, DU-4475, 96 h; DU4475, breast cancer, four days; read-out: EC50
ZR-75-1 = assay: CellTiter-Glo Viability Assay, breast cancer; format: cell-based; settings: Homo sapiens, 96 h; ZR-75-1, breast cancer, four days; read-out: EC50
CAMA1 = assay: CellTiter-Glo Viability Assay, breast cancer; format: cell-based; settings: Homo sapiens, CAMA-1, 96 h; CAMA1, breast cancer, four days; read-out: EC50
BT-549 = assay: CellTiter-Glo Viability Assay, breast cancer; format: cell-based; settings: Homo sapiens, 96 h; BT-549, breast cancer, four days; read-out: EC50
CLK2 = molecular target: T1, CLK2 (Homo sapiens, UniProt P49760); assay: CLK2 kinase activity assay (Z-lyte, Ser/Thr 6 peptide); format: biochemical; settings: recombinant CLK2 kinase, ATP 60 μM; read-out: EC50
T1 construct: purchased Thermo Fisher (Life Technologies), Z'-LYTE Kinase Assay Kits
Procedure: All reactions were performed in duplicate.

[8] = HCT-116, HCT116 cell line, read-out: Colorectal cancer, EC50 (μM) HCT116
[9] = HT-29, HT29 cell line, read-out: Colorectal cancer, EC50 (μM) HT29
[10] = SW-620, SW620 cell line, read-out: Colorectal cancer, EC50 (μM) SW620
[11] = DLD-1 cell line, read-out: Colorectal cancer, EC50 (μM) DLD-1
[12] = SW48 cell line, read-out: Colorectal cancer, EC50 (μM) SW48
[13] = SW480 cell line, read-out: Colorectal cancer, EC50 (μM) SW480
[14] = PA-1, PA1 cell line, read-out: Ovarian cancer, EC50 (μM) PA1
[15] = TOV112D, TOV-112D cell line, read-out: Ovarian cancer, EC50 (μM) TOV-112D
[16] = OV-90 cell line, read-out: Ovarian cancer, EC50 (μM) OV-90
[17] = OVCAR-3 cell line, read-out: Ovarian cancer, EC50 (μM) OVCAR-3
[18] = A-427, A427 cell line, read-out: Lung cancer, EC50 (μM) A427
[19] = HCC78, HCC-78 cell line, read-out: Lung cancer, EC50 (μM) HCC-78
[20] = NCI-H460 cell line, read-out: Lung cancer, EC50 (μM) NCI-H460
[21] = NCI-H522 cell line, read-out: Lung cancer, EC50 (μM) NCI-H522
[22] = DU-145, read-out: Prostate cancer EC50 Du-145
[23] = PC-3, PC3 cell line, inhibition of cancer cell proliferation, read-out: Prostate cancer EC50 PC3
[24] = 22Rv1 cell line, inhibition of cancer cell proliferation, read-out: Prostate cancer EC50 22Rv1
[25] = LNCap clone FGC cell line, inhibition of cancer cell proliferation, read-out: Prostate cancer EC50 LNCap clone FGC
[26] = VCaP (Sigma) cell line, inhibition of cancer cell proliferation, read-out: Prostate cancer EC50 VCaP (Sigma)
[27] = SNU-398, SNU398 cell line, read-out: Liver cancer, EC50 SNU398
[28] = HEPG2 cell line, read-out: Liver cancer, EC50 HEPG2
[29] = PLC/PRF/5 cell line, read-out: Liver cancer, EC50 PLC/PRF/5
[30] = BXPC-3, BxPC3 cell line, read-out: Pancreatic cancer, EC50 BxPC3
[31] = CAPAN-1, Capan1 cell line, read-out: Pancreatic cancer, EC50 Capan1
[32] = Capan-2, Capan2 cell line, read-out: Pancreatic cancer, EC50 Capan2
[33] = MIA PaCa-2 cell line, read-out: Pancreatic cancer, EC50 MIA PaCa-2
[34] = PANC 05.04 cell line, read-out: Pancreatic cancer, EC50 PANC 05.04
[35] = PANC-1 cell line, read-out: Pancreatic cancer, EC50 PANC-1
[36] = UPAFII cell line, read-out: Pancreatic cancer, EC50 UPAFII
[37] = DND41, DND-41 cell line, read-out: Haematopoietic & Lymphoid tumors, EC50 (μM) DND-41
[38] = MV4-11, MV-4-11 cell line, read-out: Haematopoietic & Lymphoid tumors, EC50 (μM) MV-4-11
[39] = Rec1, REC-1 cell line, read-out: Haematopoietic & Lymphoid tumors, EC50 (μM) REC-1
[40] = SU-DHL-4, SUDHL4 cell line, read-out: Haematopoietic & Lymphoid tumors, EC50 (μM) SUDHL4
[41] = HL-60 cell line, read-out: Haematopoietic & Lymphoid tumors, EC50 (μM) HL-60
[42] = JM1 cell line, read-out: Haematopoietic & Lymphoid tumors, EC50 (μM) JM1
[43] = JURKAT, Clone E6-1 cell line, read-out: Haematopoietic & Lymphoid tumors, EC50 (μM) JURKAT, Clone E6-1
[44] = JeKo-1 cell line, read-out: Haematopoietic & Lymphoid tumors, EC50 (μM) JeKo-1
[45] = KASUMI-1 cell line, read-out: Haematopoietic & Lymphoid tumors, EC50 (μM) KASUMI-1
[46] = Loucy cell line, read-out: Haematopoietic & Lymphoid tumors, EC50 (μM) Loucy
[47] = MOLT-4 cell line, read-out: Haematopoietic & Lymphoid tumors, EC50 (μM) MOLT-4
[48] = TF-1 cell line, read-out: Haematopoietic & Lymphoid tumors, EC50 (μM) TF-1
[49] = TOLEDO cell line, read-out: Haematopoietic & Lymphoid tumors, EC50 (μM) TOLEDO

Sequence of CLK3 (P49761 whole entry): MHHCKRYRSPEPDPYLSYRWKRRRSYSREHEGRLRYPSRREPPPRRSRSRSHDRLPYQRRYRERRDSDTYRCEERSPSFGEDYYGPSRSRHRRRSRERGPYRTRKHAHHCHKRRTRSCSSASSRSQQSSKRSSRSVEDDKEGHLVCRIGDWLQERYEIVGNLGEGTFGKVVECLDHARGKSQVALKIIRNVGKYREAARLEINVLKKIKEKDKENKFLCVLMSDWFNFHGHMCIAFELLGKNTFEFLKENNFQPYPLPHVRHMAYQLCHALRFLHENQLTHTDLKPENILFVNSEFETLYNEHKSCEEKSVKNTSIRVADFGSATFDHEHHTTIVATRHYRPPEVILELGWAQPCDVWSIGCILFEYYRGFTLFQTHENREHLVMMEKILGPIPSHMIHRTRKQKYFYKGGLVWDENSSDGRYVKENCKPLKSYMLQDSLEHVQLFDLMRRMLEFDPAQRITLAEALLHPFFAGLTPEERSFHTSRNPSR
T1 sequence (P49760 whole entry): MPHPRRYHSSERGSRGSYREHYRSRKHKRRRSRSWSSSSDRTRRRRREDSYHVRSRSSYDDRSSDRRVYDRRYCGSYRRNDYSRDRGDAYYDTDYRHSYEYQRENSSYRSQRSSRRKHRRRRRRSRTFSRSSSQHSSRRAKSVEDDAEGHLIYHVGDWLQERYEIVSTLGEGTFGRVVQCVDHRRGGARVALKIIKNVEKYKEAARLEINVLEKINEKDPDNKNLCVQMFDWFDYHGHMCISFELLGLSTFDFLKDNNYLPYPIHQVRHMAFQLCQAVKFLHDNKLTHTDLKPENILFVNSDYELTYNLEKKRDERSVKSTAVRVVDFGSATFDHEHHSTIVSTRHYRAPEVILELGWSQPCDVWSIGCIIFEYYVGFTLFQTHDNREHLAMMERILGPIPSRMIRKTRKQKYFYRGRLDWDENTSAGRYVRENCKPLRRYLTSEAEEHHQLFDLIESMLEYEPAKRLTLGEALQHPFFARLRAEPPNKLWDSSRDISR

For CN1CCCCN(C)c2nccc3[nH]c(nc23)-c2n[nH]c3ccc(cc23)-c2cncc(c2)C1 [Compound 58], the EC50 [1, 8] was 0.15 µM, the EC50 [1, 9] was 0.455 µM and the EC50 [1, 10] was 0.066 µM. For the same compound, the EC50 [1, 11] was 0.132 µM, the EC50 [1, 12] was 0.057 µM and the EC50 [1, 13] was 0.165 µM. It also gave an EC50 (all 50 cell lines) of 0.441 µM, an EC50 [2, 14] of 0.147 µM and an EC50 [2, 15] of 0.292 µM. The EC50 [2, 16] was 0.847 µM, the EC50 [2, 17] was 0.162 µM and the EC50 [3, 18] was 0.177 µM. For the same compound, the EC50 [3, 19] was 0.9 µM, the EC50 [3, 20] was 0.454 µM and the EC50 [3, 21] was 0.103 µM. It also gave an EC50 [4, 22] of 0.179 µM, an EC50 [4, 23] of 0.313 µM and an EC50 [4, 24] of 0.121 µM. The EC50 [4, 25] was 1.06 µM, the EC50 [4, 26] was 0.35 µM and the EC50 [5, 27] was 0.031 µM. For the same compound, the EC50 [5, 28] was 2.11 µM, the EC50 [5, 29] was 1.6 µM and the EC50 [6, 30] was 0.462 µM. It also gave an EC50 [6, 31] of 0.323 µM, an EC50 [6, 32] of 0.249 µM and an EC50 [6, 33] of 0.12 µM. For the same compound, the EC50 [6, 34] was 0.752 µM, the EC50 [6, 35] was 0.578 µM and the EC50 [6, 36] was 0.19 µM. The EC50 [7, 37] was 0.106 µM, the EC50 [7, 38] was 0.013 µM and the EC50 [7, 39] was 0.089 µM. For the same compound, the EC50 [7, 40] was 0.074 µM, the EC50 [7, 41] was 1.13 µM and the EC50 [7, 42] was 0.032 µM. For the same compound, the EC50 [7, 43] was 0.271 µM, the EC50 [7, 44] was 0.067 µM and the EC50 [7, 45] was 0.185 µM. The EC50 [7, 46] was 0.145 µM, the EC50 [7, 47] was 0.314 µM and the EC50 [7, 48] was 0.921 µM. For the same compound, the EC50 [7, 49] was 0.065 µM, the EC50 (CLK3) was 0.0119 µM and the EC50 (MCF7) was 1.81 µM. It also gave an EC50 (T47D) of 1.24 µM, an EC50 (MDA-MB-231-Luc) of 0.505 µM and an EC50 (HCC1599) of 0.379 µM. The EC50 (DU4475) was 0.131 µM, the EC50 (ZR-75-1) was 0.519 µM and the EC50 (CAMA1) was 1.02 µM. It also gave an EC50 (BT-549) of 0.48 µM and an EC50 (CLK2) of 0.0016 µM.
CN1CCN(c2ccc(NC(=O)c3n[nH]c4ccc(-c5cncc(NC(=O)C6CC6)c5)cc34)cn2)CC1 [Compound 60] gave an EC50 [1, 8] of 0.639 µM, an EC50 [1, 9] of 2.52 µM and an EC50 [1, 10] of 0.455 µM. The EC50 [1, 11] was 1.76 µM, the EC50 [1, 12] was 0.174 µM and the EC50 [1, 13] was 0.486 µM. The EC50 (all 50 cell lines) was 1.07 µM, the EC50 [2, 14] was 0.405 µM and the EC50 [2, 15] was 0.475 µM. For the same compound, the EC50 [2, 16] was 1.08 µM, the EC50 [2, 17] was 0.116 µM and the EC50 [3, 18] was 0.35 µM. For the same compound, the EC50 [3, 19] was 1.69 µM, the EC50 [3, 20] was 2.65 µM and the EC50 [3, 21] was 0.191 µM. It also gave an EC50 [4, 22] of 1.19 µM, an EC50 [4, 23] of 0.831 µM and an EC50 [4, 24] of 0.36 µM. It also gave an EC50 [4, 25] of 4.24 µM, an EC50 [4, 26] of 3.47 µM and an EC50 [5, 27] of 0.12 µM. It also gave an EC50 [5, 28] of 0.452 µM, an EC50 [5, 29] of 2.03 µM and an EC50 [6, 30] of 2.68 µM. The EC50 [6, 31] was 1.9 µM, the EC50 [6, 32] was 1.28 µM and the EC50 [6, 33] was 0.331 µM. The EC50 [6, 34] was 1.17 µM, the EC50 [6, 35] was 3.85 µM and the EC50 [6, 36] was 0.397 µM. The EC50 [7, 37] was 0.154 µM, the EC50 [7, 38] was 0.088 µM and the EC50 [7, 39] was 1.45 µM. For the same compound, the EC50 [7, 40] was 0.641 µM, the EC50 [7, 41] was 3.24 µM and the EC50 [7, 42] was 0.121 µM. It also gave an EC50 [7, 43] of 1.42 µM, an EC50 [7, 44] of 0.039 µM and an EC50 [7, 45] of 0.685 µM. It also gave an EC50 [7, 46] of 0.207 µM, an EC50 [7, 47] of 0.503 µM and an EC50 [7, 48] of 3.05 µM. The EC50 [7, 49] was 0.219 µM, the EC50 (CLK3) was 0.0128 µM and the EC50 (MCF7) was 1.6 µM. The EC50 (T47D) was 0.296 µM, the EC50 (MDA-MB-231-Luc) was 0.557 µM and the EC50 (HCC1599) was 0.057 µM. The EC50 (DU4475) was 0.169 µM, the EC50 (ZR-75-1) was 0.738 µM and the EC50 (CAMA1) was 0.252 µM. It also gave an EC50 (BT-549) of 0.734 µM and an EC50 (CLK2) of 0.0009 µM.
